Assay results from patent publication US4536335A, “Carbapenem antibiotics” (Bristol-Myers Company, priority 1983, dated 1985).
In brackets after ≈: the same amount, converted by molar mass.

Columns and labels:
S. pneumoniae A-9585 = experiment: In vitro MIC, tube dilution; type: cell-based; settings: Streptococcus pneumoniae, A9585, Nutrient Broth, overnight incubation at 37° C., additional data table
S. pyogenes A-9604 = experiment: In vitro MIC, tube dilution; type: cell-based; settings: Streptococcus pyogenes, A9604, tube dilution, Nutrient Broth, overnight incubation at 37° C.; additional data table
S. faecalis A20688 = experiment: In vitro MIC, tube dilution; type: cell-based; settings: Enterococcus faecalis, A20688, tube dilution, Nutrient Broth, overnight incubation at 37° C.; additional data table
P. mirabilis A-9900 = experiment: In vitro MIC, tube dilution; type: cell-based; settings: Proteus mirabilis, A9900, tube dilution, Nutrient Broth, overnight incubation at 37° C.; additional data table
P. vulgaris A21559 = experiment: In vitro MIC, tube dilution; type: cell-based; settings: Proteus vulgaris, A21559, tube dilution, Nutrient Broth, overnight incubation at 37° C.; additional data table
P. morganii A15153 = experiment: In vitro MIC, tube dilution; type: cell-based; settings: Morganella morganii, A15153, tube dilution, Nutrient Broth, overnight incubation at 37° C.; additional data table; read-out: MIC M. morganii A15153
P. rettgeri A22424 = experiment: In vitro MIC, tube dilution; type: cell-based; settings: Providencia rettgeri, A22424, tube dilution, Nutrient Broth, overnight incubation at 37° C.; additional data table
S. marcescens A20019 = experiment: In vitro MIC, tube dilution; type: cell-based; settings: Serratia marcescens, A20019, tube dilution, Nutrient Broth, overnight incubation at 37° C.; additional data table
P. aeruginosa A-9843A [1] = experiment: In vitro MIC, tube dilution; type: cell-based; settings: Pseudomonas aeruginosa, A9843A, Nutrient Broth, overnight incubation at 37° C., additional data table
P. aeruginosa A-9843a [2] = experiment: Protective effect in the intramuscular treatment of infected mice (PD50); type: in vivo; settings: Pseudomonas aeruginosa, A9843A, im, read-out: PD50/treatment, P. aeruginosa A9843A
Protocol: The PD50 (dose in mg/kg required to give protection to 50% of the infected mice) is indicated.
Treatment Schedule: Mice were treated i.m. with drugs 0 and 2 hours post-infection; 5 mice per dose were used for each test
*For compound of Ex. 2, mice were infected i.p. with 2 × 10^9
compounds of Ex. 4 and 5, mice were infected i.p. with ~9 ×
were treated i.m. with drugs 0 and 2 h postinfection.

[3] = Blood levels in mice after intramuscular administration; type: in vivo; settings: mouse, blood, im, 20 mg/kg, intramuscular dose of 20 mg/kg
Source text: Compounds were solubilized in 0.1 M phosphate buffer pH 7. Values are fro
a single test; 4 mice used per compound.
*t1/2 refers to halflife in minutes
**AUC refers to the area under the blood concentrationtime curve
(§1) Also shown is the urinary recovery in the mice.
Compounds were solubilized in 0.1 M phosphate buffer, pH 7.
Values based on a single test; 4 mice per compound.
*T1/2 refers to halflife in minutes

[4] = Urinary recovery after intramuscular administration to mice; type: in vivo; settings: mouse, urine, im, 20 mg/kg, intramuscular dose of 20 mg/kg, 0-6 hour collection, read-out: Urine Recovery
Protocol: Compounds were solubilized in 0.1 M phosphate buffer pH 7. Values are from a single test; 4 mice per compound.
as §1
***Recovery based on 0-6 hour collection

[5] = Half-life in phosphate buffer solution; type: physicochemical; settings: phosphate buffer, pH 7.4, concentration of 10^-4 M in phosphate buffer pH 7.4 at 36.8° C.; read-out: t1/2 (solution stability) (converted)
Protocol: A solution of para-nitrobenzyl 3-[2-(N-methylthiomorpholinium diphenylphosphate)ethylthio]-6α-[1'-(R)-hydroxyethyl]-7-oxo-1-azabicyclo[3.2.0]hept-2-ene-2-carboxylate (1.31 g, 1.76 mmol) in 0.1 M pH 7.4 phosphate buffer (48.8 mL), tetrahydrofuran (20 mL) and diethyl ether (20 mL) was hydrogenated over 10% pd/C (1.5 g) in a Parr shaker for 1 h at 40 psi. The reaction mixture was diluted with diethyl ether (40 mL) and the phases were separated. The organic phase was washed with water (2×5 mL). The aqueous phases were combined, filtered through a #52 hardened filter paper, washed with diethyl ether (2×20 mL) and pumped under vacuum. The aqueous solution was poured on a silica gel reverse phase column and the desired carbapenem was eluted with 5% acetonitrile-water.
To a solution of p-nitrobenzyl (5R,6S)-3-[2-(1-methylmorpholino)ethylthio]-6-[(R)-1-hydroxyethyl]-7-oxo-1-azabicyclo[3.2.0]hept-2-ene-2-carboxylate diphenylphosphate (0.360 g, 0.49 mmol) in 13 mL of phosphate buffer (0.05 M pH 7.4) was added 0.36 g of 10% palladium-on-charcoal, 20 mL of tetrahydrofuran and 20 mL of diethyl ether. This mixture was hydrogenated (Parr) at 32 psi for 1 h. The mixture was filtered through Celite and the filter pad was washed with H2 O and diethyl ether. The aqueous phase was separated and the pH was adjusted to 7.0 with additional pH 7.4 phosphate buffer. After removing residual organic solvents in vacuo the aqueous solution was applied to a C18 reverse-phase column.
To a solution of (5R,6S)paranitrobenzyl 3-[2-(1,4-dimethyl-1-piperazinium)ethylthio]-6-[1-(R)-hydroxyethyl]-7-oxo- 1-azabicyclo[3.2.0]hept-2-ene-2-carboxylate diphenylphosphate (0.47 g, 0.623 mmol) in wet tetrahydrofuran (25 mL) was added diethyl ether (25 mL), potassium phosphate monobasic-sodium hydroxide buffer (13 mL, pH 7.22) and 10% palladium on charcoal (0.47 g). The resulting mixture was hydrogenated at 23° C. under 40 psi for 1 h. The two layers were separated and the organic layer was extracted with water (2×7 mL).
To a cold (-10° C.) solution of (5R,6S)-3-[2 -(N-methyl-thiomorpholinium)ethylthio]-6-[1-(R)-hydroxyethyl]-7-oxo-1-azabicyclo(3.2.0)-hept-2-ene-2-carboxylate (608 mg, 1.65 mmol) in a 1:1 mixture of acetonitrile-water (9 mL) was added m-chloroperbenzoic acid (334.8 mg, 1.65 mmol) in small portion over a 1 hour period. The mixture was then diluted with water (15 mL) and washed with diethyl ether (3×15 mL).
A mixture of (5R,6S) paranitrobenzyl 3-[2-(1,4,4-trimethyl-1-piperazinium)ethylthio]-6-[1R-hydroxyethyl]-7-oxo- 1-azabicyclo(3.2.0)hept-2-ene-2-carboxylate bischloride (0.40 g, 0.68 mmol), phosphate buffer (30 mL, 0.05M, pH 7.0), tetrahydrofuran (10 mL), ether (30 mL) and 10% palladium on charcoal (0.40 g) was hydrogenated at 23° C. under 35 psi for 1 h. The two phases were separated. The organic phase was extracted with water (10 mL).

C[C@@H](O)[C@H]1C(=O)N2C(C(=O)[O-])=C(SCC[N+]3(C)CCN(C)CC3)C[C@H]12 [Example 4, (5R,6S)3-[2-(1,4-dimethyl-1-piperazinium)-ethylthio]-6-[1-(R)-hydroxyethyl]-7-oxo-1-azabicyclo-[3.2.0]hept-2-ene-2-carboxylate]
MIC (S. pneumoniae A-9585): 4 ng/mL (≈ 0.0108 µM) | MIC (S. pyogenes A-9604): 4 ng/mL (≈ 0.0108 µM) | MIC (S. faecalis A20688): 2 µg/mL (≈ 5.41 µM) | MIC (P. mirabilis A-9900): 0.25 µg/mL (≈ 0.677 µM) | MIC (P. vulgaris A21559): 0.25 µg/mL (≈ 0.677 µM) | MIC (P. morganii A15153): 1 µg/mL (≈ 2.71 µM) | MIC (P. rettgeri A22424): 1 µg/mL (≈ 2.71 µM) | MIC (S. marcescens A20019): 0.25 µg/mL (≈ 0.677 µM) | MIC (P. aeruginosa A-9843A [1]): 16 µg/mL (≈ 43.3 µM) | ED50 (P. aeruginosa A-9843a [2]): 2.7 mg/kg | Cmax [3]: 17300 ng/mL | AUC ([3]; read-out: Blood AUC): 7600 ng·h/mL | half-life ([3]; read-out: Blood T1/2): 12 min | dose excreted at 6 h [4]: 33 ± 11% | half-life [5]: 744 min
